According to patent US20200079793A1, “COMPOUNDS AND METHODS FOR MODULATING ADENOSINE A2B RECEPTOR AND ADENOSINE A2A RECEPTOR” (CORVUS PHARMACEUTICALS, INC., priority 2018, published 2020):

Key:
[1] = target: T1, A1R (Homo sapiens, UniProt P30542); assay: Activity assay of adenosine receptor modulators, A1R cAMP (Table 1); assay type: cell-based
T1 sequence (P30542 1-326): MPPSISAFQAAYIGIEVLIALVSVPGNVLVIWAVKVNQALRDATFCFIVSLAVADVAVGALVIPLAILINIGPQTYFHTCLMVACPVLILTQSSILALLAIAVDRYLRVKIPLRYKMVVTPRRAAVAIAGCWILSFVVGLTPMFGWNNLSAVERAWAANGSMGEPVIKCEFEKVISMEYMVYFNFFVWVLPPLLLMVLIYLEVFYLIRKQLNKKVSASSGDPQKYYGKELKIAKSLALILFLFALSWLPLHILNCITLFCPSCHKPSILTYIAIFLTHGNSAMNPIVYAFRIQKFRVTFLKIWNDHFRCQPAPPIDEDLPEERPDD
Method: (§1) Compounds (e.g., adenosine receptor modulators) were tested for its biological activity. The assay results in Table 1 indicate (+ means >1 μM; ++ means 100 nM to 1 μM; +++ means <100 nM).

[2] = target: T2, Adenosine A2B Receptor (Homo sapiens, UniProt P29275); assay: Activity assay of adenosine receptor modulators, Adenosine A2B Receptor (Table 1); assay type: biochemical; conditions: cAMP; read-out: A2BR cAMP IC50
T2 sequence (P29275 1-332): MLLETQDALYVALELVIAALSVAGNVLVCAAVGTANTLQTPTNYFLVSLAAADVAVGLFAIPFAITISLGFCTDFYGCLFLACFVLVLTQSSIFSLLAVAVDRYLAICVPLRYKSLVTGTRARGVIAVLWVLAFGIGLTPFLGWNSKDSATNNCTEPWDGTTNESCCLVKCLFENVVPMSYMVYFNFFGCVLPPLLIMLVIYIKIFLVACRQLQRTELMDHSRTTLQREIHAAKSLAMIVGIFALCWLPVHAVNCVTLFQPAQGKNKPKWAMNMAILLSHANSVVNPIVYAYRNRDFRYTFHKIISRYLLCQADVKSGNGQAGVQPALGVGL
Method: as §1

[3] = target: Adenosine A2A Receptor (Homo sapiens, UniProt P29274); assay: Activity assay of adenosine receptor modulators, Adenosine A2A Receptor (Table 1); assay type: biochemical; conditions: cAMP; read-out: A2AR cAMP IC50
Chain of Adenosine A2A Receptor (P29274 whole entry): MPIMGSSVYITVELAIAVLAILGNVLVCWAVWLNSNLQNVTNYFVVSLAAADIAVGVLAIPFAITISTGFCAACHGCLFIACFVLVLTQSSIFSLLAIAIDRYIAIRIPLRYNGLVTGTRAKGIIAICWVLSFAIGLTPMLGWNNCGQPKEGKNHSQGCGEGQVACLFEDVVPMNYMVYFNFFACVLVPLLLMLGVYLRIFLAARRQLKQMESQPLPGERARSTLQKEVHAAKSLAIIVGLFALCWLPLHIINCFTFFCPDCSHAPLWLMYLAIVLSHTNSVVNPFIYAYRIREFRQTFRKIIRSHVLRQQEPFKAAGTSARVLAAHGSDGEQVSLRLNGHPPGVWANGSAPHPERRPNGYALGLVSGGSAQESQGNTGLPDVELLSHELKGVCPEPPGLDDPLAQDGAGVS
Method: as §1

[4] = target: T3, A3R (Homo sapiens, UniProt P0DMS8); assay: Activity assay of adenosine receptor modulators, A3R cAMP (Table 1); assay type: cell-based
T3 sequence (P0DMS8 1-318): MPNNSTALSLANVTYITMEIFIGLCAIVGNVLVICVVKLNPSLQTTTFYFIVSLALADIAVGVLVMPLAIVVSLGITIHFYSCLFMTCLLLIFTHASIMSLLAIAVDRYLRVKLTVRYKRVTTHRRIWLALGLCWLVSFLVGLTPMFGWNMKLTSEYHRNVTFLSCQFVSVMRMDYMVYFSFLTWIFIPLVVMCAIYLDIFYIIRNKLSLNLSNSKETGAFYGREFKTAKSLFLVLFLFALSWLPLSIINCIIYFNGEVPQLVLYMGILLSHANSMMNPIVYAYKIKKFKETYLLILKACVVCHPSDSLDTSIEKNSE
Method: as §1

SMILES: CCNC(=O)C1CCN(C(=O)c2nc(N[C@@H](C)c3cncc(F)c3)nc3nc(C)sc23)C1 (stereo partly drawn) [Example 38, N-ethyl-1-(5-(((S)-1-(5-fluoropyridin-3-yl)ethyl)amino)-2-methylthiazolo[4,5-d]pyrimidine-7-carbonyl)pyrrolidine-3-carboxamide]
- IC50 [1]: > 1000 nM
- IC50 [2]: < 100 nM
- IC50 [3]: > 1000 nM
- IC50 [4]: > 1000 nM

SMILES: CC(=O)NCC1CN(C(=O)c2nc(N[C@@H](C)c3cncc(F)c3)nc3nc(C)sc23)C1 [Example 39, (S)—N-((1-(5-((1-(5-Fluoropyridin-3-yl)ethyl)amino)-2-methylthiazolo[4,5-d]pyrimidine-7-carbonyl)azetidin-3-yl)methyl)acetamide]
- IC50 [1]: > 1000 nM
- IC50 [2]: < 100 nM
- IC50 [3]: > 1000 nM
- IC50 [4]: > 1000 nM

SMILES: CO[C@@H]1CCN(C(=O)c2nc(N[C@@H](C)c3cncc(F)c3)nc3nc(C)sc23)C1 [Example 40, (5-(((S)-1-(5-Fluoropyridin-3-yl)ethyl)amino)-2-methylthiazolo[4,5-d]pyrimidin-7-yl)((R)-3-methoxypyrrolidin-1-yl)methanone]
- IC50 [1]: > 1000 nM
- IC50 [2]: < 100 nM
- IC50 [3]: 100 to 1000 nM
- IC50 [4]: > 1000 nM

SMILES: CO[C@H]1CCN(C(=O)c2nc(N[C@@H](C)c3cncc(F)c3)nc3nc(C)sc23)C1 [Example 41, (5-(((S)-1-(5-Fluoropyridin-3-yl)ethyl)amino)-2-methylthiazolo[4,5-d]pyrimidin-7-yl)((S)-3-methoxypyrrolidin-1-yl)methanone]
- IC50 [1]: > 1000 nM
- IC50 [2]: < 100 nM
- IC50 [3]: > 1000 nM
- IC50 [4]: > 1000 nM

SMILES: COC[C@@H]1CCN(C(=O)c2nc(N[C@@H](C)c3cncc(F)c3)nc3nc(C)sc23)C1 [Example 47, (5-(((S)-1-(5-Fluoropyridin-3-yl)ethyl)amino)-2-methylthiazolo[4,5-d]pyrimidin-7-yl)((R)-3-(methoxymethyl)pyrrolidin-1-yl)methanone]
- IC50 [1]: > 1000 nM
- IC50 [2]: < 100 nM
- IC50 [3]: > 1000 nM
- IC50 [4]: > 1000 nM

SMILES: COC[C@H]1CCN(C(=O)c2nc(N[C@@H](C)c3cncc(F)c3)nc3nc(C)sc23)C1 [Example 48, (5-(((S)-1-(5-Fluoropyridin-3-yl)ethyl)amino)-2-methylthiazolo[4,5-d]pyrimidin-7-yl)((S)-3-(methoxymethyl)pyrrolidin-1-yl)methanone]
- IC50 [1]: > 1000 nM
- IC50 [2]: < 100 nM
- IC50 [3]: 100 to 1000 nM
- IC50 [4]: > 1000 nM

SMILES: Cc1nc2nc(N[C@@H](C)c3cncc(F)c3)nc(C(=O)N3CC[C@@H](CO)C3)c2s1 [Example 49, (5-(((S)-1-(5-Fluoropyridin-3-yl)ethyl)amino)-2-methylthiazolo[4,5-d]pyrimidin-7-yl)((R)-3-(hydroxymethyl)pyrrolidin-1-yl)methanone]
- IC50 [1]: > 1000 nM
- IC50 [2]: < 100 nM
- IC50 [3]: > 1000 nM
- IC50 [4]: > 1000 nM

SMILES: Cc1nc2nc(N[C@@H](C)c3cncc(F)c3)nc(C(=O)N3CC[C@H](CO)C3)c2s1 [Example 50, (5-(((S)-1-(5-Fluoropyridin-3-yl)ethyl)amino)-2-methylthiazolo[4,5-d]pyrimidin-7-yl)((S)-3-(hydroxymethyl)pyrrolidin-1-yl)methanone]
- IC50 [1]: > 1000 nM
- IC50 [2]: < 100 nM
- IC50 [3]: 100 to 1000 nM
- IC50 [4]: > 1000 nM

SMILES: COCC1CN(C(=O)c2nc(N[C@@H](C)c3cncc(F)c3)nc3nc(C)sc23)C1 [Example 51, (S)-(5-((1-(5-Fluoropyridin-3-yl)ethyl)amino)-2-methylthiazolo[4,5-d]pyrimidin-7-yl)(3-(methoxymethyl)azetidin-1-yl)methanone]
- IC50 [1]: > 1000 nM
- IC50 [2]: < 100 nM
- IC50 [3]: 100 to 1000 nM
- IC50 [4]: > 1000 nM

SMILES: CC(=O)NC[C@@H]1CCN(C(=O)c2nc(N[C@@H](C)c3cncc(F)c3)nc3nc(C)sc23)C1 [Example 52, N—(((S)-1-(5-(((S)-1-(5-Fluoropyridin-3-yl)ethyl)amino)-2-methylthiazolo[4,5-d]pyrimidine-7-carbonyl)pyrrolidin-3-yl)methyl)acetamide]
- IC50 [1]: > 1000 nM
- IC50 [2]: < 100 nM
- IC50 [3]: > 1000 nM
- IC50 [4]: > 1000 nM

SMILES: CC(=O)NC[C@H]1CCN(C(=O)c2nc(N[C@@H](C)c3cncc(F)c3)nc3nc(C)sc23)C1 [Example 53, N—(((R)-1-(5-(((S)-1-(5-Fluoropyridin-3-yl)ethyl)amino)-2-methylthiazolo[4,5-d]pyrimidine-7-carbonyl)pyrrolidin-3-yl)methyl)acetamide]
- IC50 [1]: > 1000 nM
- IC50 [2]: 100 to 1000 nM
- IC50 [3]: > 1000 nM
- IC50 [4]: > 1000 nM

SMILES: Cc1nc2nc(N[C@@H](C)c3cncc(F)c3)nc(C(=O)N3CC(NC(=O)C4(C)CC4)C3)c2s1 [Example 54, (S)—N-(1-(5-((1-(5-Fluoropyridin-3-yl)ethyl)amino)-2-methylthiazolo[4,5-d]pyrimidine-7-carbonyl)azetidin-3-yl)-1-methylcyclopropane-1-carboxamide]
- IC50 [1]: > 1000 nM
- IC50 [2]: < 100 nM
- IC50 [3]: < 100 nM
- IC50 [4]: < 100 nM

SMILES: Cc1nc2nc(N[C@@H](C)c3cncc(F)c3)nc(C(=O)N3CC(NC(=O)C4CCCC4)C3)c2s1 [Example 55, (S)—N-(1-(5-((1-(5-Fluoropyridin-3-yl)ethyl)amino)-2-methylthiazolo[4,5-d]pyrimidine-7-carbonyl)azetidin-3-yl)cyclopentanecarboxamide]
- IC50 [1]: > 1000 nM
- IC50 [2]: < 100 nM
- IC50 [3]: < 100 nM
- IC50 [4]: < 100 nM

SMILES: Cc1nc2nc(N[C@@H](C)c3cncc(F)c3)nc(C(=O)N3CC(NC(=O)C4CCC4)C3)c2s1 [Example 56, (S)—N-(1-(5-((1-(5-Fluoropyridin-3-yl)ethyl)amino)-2-methylthiazolo[4,5-d]pyrimidine-7-carbonyl)azetidin-3-yl)cyclobutanecarboxamide]
- IC50 [1]: > 1000 nM
- IC50 [2]: < 100 nM
- IC50 [3]: < 100 nM
- IC50 [4]: < 100 nM

SMILES: Cc1nc2nc(N[C@@H](C)c3cncc(F)c3)nc(C(=O)N3CC(NC(=O)NC(C)(C)C)C3)c2s1 [Example 57, (S)-1-(tert-Butyl)-3-(1-(5-((1-(5-fluoropyridin-3-yl)ethyl)amino)-2-methylthiazolo[4,5-d]pyrimidine-7-carbonyl)azetidin-3-yl)urea]
- IC50 [1]: > 1000 nM
- IC50 [2]: < 100 nM
- IC50 [3]: < 100 nM
- IC50 [4]: 100 to 1000 nM

SMILES: Cc1nc2nc(N[C@@H](C)c3cncc(F)c3)nc(C(=O)N3CC(NC(=O)c4ccccc4)C3)c2s1 [Example 58, (S)—N-(1-(5-((1-(5-Fluoropyridin-3-yl)ethyl)amino)-2-methylthiazolo[4,5-d]pyrimidine-7-carbonyl)azetidin-3-yl)benzamide]
- IC50 [1]: > 1000 nM
- IC50 [2]: < 100 nM
- IC50 [3]: < 100 nM
- IC50 [4]: < 100 nM

SMILES: Cc1nc2nc(N[C@@H](C)c3cncc(F)c3)nc(C(=O)N3CC(NC(=O)c4ccccc4F)C3)c2s1 [Example 59, (S)-2-Fluoro-N-(1-(5-((1-(5-fluoropyridin-3-yl)ethyl)amino)-2-methylthiazolo[4,5-d]pyrimidine-7-carbonyl)azetidin-3-yl)benzamide]
- IC50 [1]: > 1000 nM
- IC50 [2]: < 100 nM
- IC50 [3]: < 100 nM
- IC50 [4]: 100 to 1000 nM

SMILES: Cc1nc2nc(N[C@@H](C)c3cncc(F)c3)nc(C(=O)N3CC(NC(=O)NC4CCCC4)C3)c2s1 [Example 60, (S)-1-Cyclopentyl-3-(1-(5-((1-(5-fluoropyridin-3-yl)ethyl)amino)-2-methylthiazolo[4,5-d]pyrimidine-7-carbonyl)azetidin-3-yl)urea]
- IC50 [1]: > 1000 nM
- IC50 [2]: < 100 nM
- IC50 [3]: < 100 nM
- IC50 [4]: 100 to 1000 nM

SMILES: Cc1nc2nc(N[C@@H](C)c3cncc(F)c3)nc(C(=O)N3CC(NC(=O)C4CCCCC4)C3)c2s1 [Example 61, (S)—N-(1-(5-((1-(5-Fluoropyridin-3-yl)ethyl)amino)-2-methylthiazolo[4,5-d]pyrimidine-7-carbonyl)azetidin-3-yl)cyclohexanecarboxamide]
- IC50 [1]: > 1000 nM
- IC50 [2]: < 100 nM
- IC50 [3]: < 100 nM
- IC50 [4]: < 100 nM

SMILES: Cc1nc2nc(N[C@@H](C)c3ccccn3)nc(C(=O)N3CC(NC(=O)C(C)(C)C)C3)c2s1 [Example 62, 2,2-Dimethyl-N-[1-[2-methyl-5-[[(S)-1-(2-pyridyl)ethyl]amino]thiazolo[4,5-d]pyrimidine-7-carbonyl]azetidin-3-yl]propanamide]
- IC50 [1]: > 1000 nM
- IC50 [2]: < 100 nM
- IC50 [3]: < 100 nM
- IC50 [4]: 100 to 1000 nM
